Results published in patent US9725465B2, “Biaryl acetamide compounds and methods of use thereof” (Ambit Biosciences Corporation, priority 2013, dated 2017).

Legend:
[1] = molecular target: FLT3 kinase (Homo sapiens (Human), UniProt P36888); experiment: Competition binding assay (Kd), FLT3; conditions: competition binding assay
[2] = molecular target: KIT kinase (Homo sapiens (Human), UniProt P10721); experiment: Competition binding assay (Kd), KIT; conditions: competition binding assay
Outline: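 Kd derived from eleven-point threefold serial dilutions of compound competing with bead-bound ligand for kinase; bound kinase eluted and measured by quantitative PCR. Kinase supplied either as a T7 phage fusion or expressed in HEK-293 cells with a DNA tag; DMSO served as control.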

[3] = molecular target: FLT3-ITD (Homo sapiens (Human), UniProt P36888, INS600HVDFREYEYD); experiment: pFLT3 MSD assay, Ba/F3 FLT3-ITD; format: cell-based; conditions: Ba/F3 FLT3-ITD cells, 2 hours, read-out: BaF3-FLT3-ITD pFlt3 IC50
FLT3-ITD, sequence (P36888 other isoform, or with tags, fused parts or gaps limits assumed, stated change not applied): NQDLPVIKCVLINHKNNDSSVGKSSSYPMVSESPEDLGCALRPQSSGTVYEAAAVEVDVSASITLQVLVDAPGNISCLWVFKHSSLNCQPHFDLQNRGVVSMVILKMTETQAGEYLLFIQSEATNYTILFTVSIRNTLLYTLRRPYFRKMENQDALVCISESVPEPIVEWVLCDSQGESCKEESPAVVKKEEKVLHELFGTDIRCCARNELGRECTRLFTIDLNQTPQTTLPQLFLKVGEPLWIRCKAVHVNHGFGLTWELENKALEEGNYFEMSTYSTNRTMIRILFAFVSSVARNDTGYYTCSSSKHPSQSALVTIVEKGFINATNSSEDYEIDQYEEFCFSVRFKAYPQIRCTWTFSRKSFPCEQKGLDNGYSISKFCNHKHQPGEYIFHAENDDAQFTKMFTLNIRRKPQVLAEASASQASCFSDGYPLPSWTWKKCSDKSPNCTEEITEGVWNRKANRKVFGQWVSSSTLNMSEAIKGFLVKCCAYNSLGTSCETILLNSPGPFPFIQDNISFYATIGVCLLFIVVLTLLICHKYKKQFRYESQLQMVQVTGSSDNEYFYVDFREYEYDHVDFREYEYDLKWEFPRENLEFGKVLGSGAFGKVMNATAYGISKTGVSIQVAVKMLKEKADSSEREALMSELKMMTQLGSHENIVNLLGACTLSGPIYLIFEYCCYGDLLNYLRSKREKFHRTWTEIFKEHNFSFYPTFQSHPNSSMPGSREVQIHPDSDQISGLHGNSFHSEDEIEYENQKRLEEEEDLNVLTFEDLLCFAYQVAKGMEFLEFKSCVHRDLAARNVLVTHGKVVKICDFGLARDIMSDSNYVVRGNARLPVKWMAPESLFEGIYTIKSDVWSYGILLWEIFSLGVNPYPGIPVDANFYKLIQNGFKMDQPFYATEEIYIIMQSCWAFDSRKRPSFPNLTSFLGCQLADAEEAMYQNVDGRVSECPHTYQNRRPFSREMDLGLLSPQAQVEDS
Method: In certain other embodiments, the compounds disclosed herein are tested in a FLT3 phosphorylation assay to determine their cellular potency against one or both of FLT3-ITD and FLT3 tyrosine kinase domain mutants. In certain embodiments, the FLT3 phosphorylation assay assesses the potency of compounds as FLT3 inhibitors by measuring the reduction in formation of phosphorylated FLT3 in the cells.
Gene constructs containing the human FLT3 sequences FLT3-ITD, FLT3-ITD-F691L, FLT3-ITD-D835V and FLT3-D835V were synthesized by reverse translation of the human protein sequences, with codons optimized for mammalian expression. Sequence of the internal tandem duplication (ITD) was based on the MV4-11 ITD sequence. […] Viruses were transduced into the IL-3-dependent, murine macrophage cell line, Ba/F3, and selected for puromycin resistance and IL-3 independence. All cell lines were cloned by limiting dilution and clones were used for all subsequent cell assays.
Briefly, cell lines were serum starved overnight in media containing 0.5% FBS. Cells were plated at 200,000 cells/well in 96-well round bottom plates in low serum, and 3-fold serial dilutions of test compounds were added for 2 hours at 37° C. […] After an overnight incubation at 4° C. shaking at 450 rpm, plates were washed with MSD wash buffer, and captured FLT3 was detected with biotinylated-anti-phosphotyrosine antibody 4G10 (Millipore) and SulfoTAG-streptavidin (MSD) for 1 hour at room temperature, and read on an MSD SECTOR Imager 6000. Percent remaining phospho-FLT3 in compound-treated cells was normalized to DMSO-treated cells, and IC50s were determined using Igor Pro software. All compounds are assayed in duplicate cell and MSD plates.

FLT3 kinase, sequence (P36888 27-993): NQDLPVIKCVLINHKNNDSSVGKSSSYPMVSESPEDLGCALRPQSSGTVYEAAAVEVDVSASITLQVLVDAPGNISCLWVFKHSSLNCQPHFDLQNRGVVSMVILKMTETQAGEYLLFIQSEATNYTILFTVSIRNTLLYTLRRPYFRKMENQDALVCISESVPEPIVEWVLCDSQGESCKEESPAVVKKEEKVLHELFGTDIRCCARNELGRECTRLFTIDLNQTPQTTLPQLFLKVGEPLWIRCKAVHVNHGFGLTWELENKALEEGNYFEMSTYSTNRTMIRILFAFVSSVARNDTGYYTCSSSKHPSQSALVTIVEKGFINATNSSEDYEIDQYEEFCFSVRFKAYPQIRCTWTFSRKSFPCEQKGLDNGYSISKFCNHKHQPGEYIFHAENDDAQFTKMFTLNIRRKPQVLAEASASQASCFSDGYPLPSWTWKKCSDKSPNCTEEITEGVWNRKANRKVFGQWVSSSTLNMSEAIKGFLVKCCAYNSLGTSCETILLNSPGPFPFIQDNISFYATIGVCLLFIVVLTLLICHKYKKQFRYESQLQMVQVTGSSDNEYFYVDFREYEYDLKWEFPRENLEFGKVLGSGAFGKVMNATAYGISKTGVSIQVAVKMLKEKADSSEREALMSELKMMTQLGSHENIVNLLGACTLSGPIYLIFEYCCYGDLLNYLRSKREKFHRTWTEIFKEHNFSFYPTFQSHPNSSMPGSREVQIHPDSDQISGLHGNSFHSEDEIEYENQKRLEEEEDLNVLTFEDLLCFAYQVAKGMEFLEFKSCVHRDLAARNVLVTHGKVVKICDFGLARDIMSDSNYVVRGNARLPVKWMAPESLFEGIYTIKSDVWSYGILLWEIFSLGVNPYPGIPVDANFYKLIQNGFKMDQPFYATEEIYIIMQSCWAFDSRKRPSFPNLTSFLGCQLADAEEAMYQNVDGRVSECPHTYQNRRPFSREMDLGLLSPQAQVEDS
KIT kinase, sequence (P10721 26-976): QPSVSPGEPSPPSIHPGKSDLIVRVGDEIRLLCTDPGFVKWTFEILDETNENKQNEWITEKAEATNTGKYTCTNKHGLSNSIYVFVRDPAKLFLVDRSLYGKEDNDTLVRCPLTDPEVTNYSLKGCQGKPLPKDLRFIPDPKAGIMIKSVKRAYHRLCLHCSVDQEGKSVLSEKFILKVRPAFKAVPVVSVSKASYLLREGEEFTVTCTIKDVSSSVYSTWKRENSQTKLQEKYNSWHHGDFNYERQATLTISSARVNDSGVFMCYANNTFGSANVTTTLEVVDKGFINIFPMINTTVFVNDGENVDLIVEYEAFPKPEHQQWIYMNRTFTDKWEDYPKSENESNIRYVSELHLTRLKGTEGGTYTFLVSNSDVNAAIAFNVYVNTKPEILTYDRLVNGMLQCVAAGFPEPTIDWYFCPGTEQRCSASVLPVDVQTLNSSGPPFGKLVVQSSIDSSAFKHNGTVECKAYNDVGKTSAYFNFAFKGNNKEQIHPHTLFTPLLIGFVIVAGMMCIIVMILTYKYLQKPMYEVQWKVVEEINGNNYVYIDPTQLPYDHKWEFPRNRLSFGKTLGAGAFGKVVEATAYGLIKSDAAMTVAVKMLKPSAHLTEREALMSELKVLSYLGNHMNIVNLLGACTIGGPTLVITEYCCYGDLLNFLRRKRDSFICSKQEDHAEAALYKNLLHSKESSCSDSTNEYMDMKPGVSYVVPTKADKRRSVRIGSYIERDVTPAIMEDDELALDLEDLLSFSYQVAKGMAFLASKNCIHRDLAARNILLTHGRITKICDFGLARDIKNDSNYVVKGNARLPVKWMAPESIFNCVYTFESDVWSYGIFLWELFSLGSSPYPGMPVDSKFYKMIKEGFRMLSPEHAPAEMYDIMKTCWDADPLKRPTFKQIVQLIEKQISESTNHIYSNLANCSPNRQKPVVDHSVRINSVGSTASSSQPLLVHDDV

Row | Compound | Kd [1] [nM] | Kd [2] [nM] | IC50 [3] [nM]
1 | COc1cc2ncc(-c3ccc(CC(=O)Nc4cc(C(C)(C)C(F)(F)F)on4)c(F)c3)c(N)c2cc1OC [Example 143, 2-[4-(4-amino-6,7-dimethoxy-3-quinolyl)-2-fluoro-phenyl]-N-[5-(2,2,2-trifluoro-1,1-dimethyl-ethyl)isoxazol-3-yl]acetamide] | < 5 | 5 to 20 | 10 to 20
2 | COc1cc2nc(-c3ccc(CC(=O)Nc4cc(C5(C(F)(F)F)CC5)on4)c(F)c3)cnc2cc1OC1COC1 [Example 144, 2-[2-fluoro-4-[7-methoxy-6-(oxetan-3-yloxy)quinoxalin-2-yl]phenyl]-N-[5-[1-(trifluoro-methyl)cyclopropyl]isoxazol-3-yl]acetamide] | < 5 | < 5 | < 10
3 | COc1cc2ncc(-c3ccc(CC(=O)Nc4cc(C(C)(C)C(F)(F)F)on4)c(F)c3)c(OC)c2cc1OC [Example 145, 2-[2-fluoro-4-(4,6,7-trimethoxy-3-quinolyl)phenyl]-N-[5-(2,2,2-trifluoro-1,1-dimethyl-ethyl)isoxazol-3-yl]acetamide] | 5 to 20 | > 50 | > 50
4 | COc1cc2nc(Cl)c(-c3ccc(CC(=O)Nc4cc(C5(C(F)(F)F)CC5)on4)c(F)c3)nc2cc1OC [Example 146, 2-[4-(3-chloro-6,7-dimethoxy-quinoxalin-2-yl)-2-fluoro-phenyl]-N-[5-[1-(trifluoromethyl)cyclo-propyl]isoxazol-3-yl]acetamide] | < 5 | < 5 | < 10
5 | COc1cc2nc(-c3ccc(CC(=O)Nc4cc(C(C)(C)C(F)(F)F)on4)c(F)c3)cnc2cc1OC1COC1 [Example 147, 2-[2-fluoro-4-[7-methoxy-6-(oxetan-3-yloxy)quinoxalin-2-yl]phenyl]-N-[5-(2,2,2-trifluoro-1,1-dimethyl-ethyl)isoxazol-3-yl]acetamide] | < 5 | < 5 | < 10
6 | COc1cc2nc(-c3ccc(CC(=O)Nc4cc(C(C)(C)C(F)(F)F)on4)c(F)c3)cnc2cc1OC1CNC1 [Example 148, 2-[4-[6-(azetidin-3-yloxy)-7-methoxy-quinoxalin-2-yl]-2-fluoro-phenyl]-N-[5-(2,2,2-trifluoro-1,1-dimethyl-ethyl)isoxazol-3-yl]acetamide] | < 5 | 5 to 20 | < 10
7 | CCN1CC(Oc2cc3ncc(-c4ccc(CC(=O)Nc5cc(C(C)(C)C(F)(F)F)on5)c(F)c4)nc3cc2OC)C1 [Example 149, 2-[4-[6-(1-ethylazetidin-3-yl)oxy-7-methoxy-quinoxalin-2-yl]-2-fluoro-phenyl]-N-[5-(2,2,2-trifluoro-1,1-dimethyl-ethyl)isoxazol-3-yl]acetamide] | < 5 | < 5 | < 10
8 | COc1cc2nc(-c3ccc(CC(=O)Nc4cc(C(C)(C)C(F)(F)F)on4)c(F)c3)cnc2cc1OC1CN(C)C1 [Example 150, 2-[2-fluoro-4-[7-methoxy-6-(1-methylazetidin-3-yl)oxy-quinoxalin-2-yl]phenyl]-N-[5-(2,2,2-trifluoro-1,1-dimethyl-ethyl)isoxazol-3-yl]acetamide] | < 5 | < 5 | < 10
9 | CC(C)(c1cc(NC(=O)Cc2ccc(-c3cnc4c(N)cccc4c3)cc2F)no1)C(F)(F)F [Example 151, 2-[4-(8-amino-3-quinolyl)-2-fluoro-phenyl]-N-[5-(2,2,2-trifluoro-1,1-dimethyl-ethyl)isoxazol-3-yl]acetamide] | < 5 | < 5 | < 10
10 | COc1cc2nc(O)c(-c3ccc(CC(=O)Nc4cc(C5(C(F)(F)F)CC5)on4)c(F)c3)nc2cc1OC [Example 152, 2-[4-(6,7-dimethoxy-3-hydroxy-quinoxalin-2-yl)-2-fluoro-phenyl]-N-[5-[1-(trifluoromethyl)cyclo-propyl]isoxazol-3-yl]acetamide] | < 5 | < 5 | < 10
